Experimental findings from PubChem BioAssay AID330 (DTP/NCI, 2004) are described below.

The test has as its system P388 leukemia ip, CD2F1 mice, survival T/C. Kind of test: NCI In Vivo Anticancer Drug Screen. Data for tumor model P388 Leukemia (intraperitoneal) in CD2F1 (CDF1) mice. To be noted: endpoint: median survival time, higher = longer survival. A digest of the protocol: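 Mice carrying the transplanted tumor received test compound or vehicle. Survival was recorded in each group, and the value is the treated-group measurement divided by that of the vehicle-treated control group.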

Setting [1] is: dose: 50.0 mg/kg/injection, schedule: Q01DX005 (ip), vehicle: saline with Tween-80.
[2] abbreviates: dose: 100.0 mg/kg/injection, schedule: Q01DX005 (ip), vehicle: saline with Tween-80.
[3] abbreviates: dose: 200.0 mg/kg/injection, schedule: Q01DX005 (ip), vehicle: saline with Tween-80.
[4] abbreviates: dose: 60.0 mg/kg/injection, schedule: Q01DX005 (ip), vehicle: saline with Tween-80.
The mark [5] stands for this setting: dose: 120.0 mg/kg/injection, schedule: Q01DX005 (ip), vehicle: saline with Tween-80.
The mark [6] stands for this setting: dose: 240.0 mg/kg/injection, schedule: Q01DX005 (ip), vehicle: saline with Tween-80.
Setting [7] is: dose: 50.0 mg/kg/injection, schedule: Q01DX009 (ip), vehicle: saline with Tween-80.
[8] abbreviates: dose: 100.0 mg/kg/injection, schedule: Q01DX009 (ip), vehicle: saline with Tween-80.
[9] abbreviates: dose: 200.0 mg/kg/injection, schedule: Q01DX009 (ip), vehicle: saline with Tween-80.
The mark [10] stands for this setting: dose: 6.25 mg/kg/injection, schedule: Q01DX009 (ip), vehicle: saline with Tween-80.
The mark [11] stands for this setting: dose: 12.5 mg/kg/injection, schedule: Q01DX009 (ip), vehicle: saline with Tween-80.
[12] abbreviates: dose: 25.0 mg/kg/injection, schedule: Q01DX009 (ip), vehicle: saline with Tween-80.
Where [13] appears, read: dose: 50.0 mg/kg/injection, schedule: Q01DX005 (ip), vehicle: Klucel (hydroxypropylcellulose) (HPC).
[14] abbreviates: dose: 100.0 mg/kg/injection, schedule: Q01DX005 (ip), vehicle: Klucel (hydroxypropylcellulose) (HPC).
[15] abbreviates: dose: 200.0 mg/kg/injection, schedule: Q01DX005 (ip), vehicle: Klucel (hydroxypropylcellulose) (HPC).
The mark [16] stands for this setting: dose: 60.0 mg/kg/injection, schedule: Q01DX005 (ip), vehicle: Klucel (hydroxypropylcellulose) (HPC).
Where [17] appears, read: dose: 120.0 mg/kg/injection, schedule: Q01DX005 (ip), vehicle: Klucel (hydroxypropylcellulose) (HPC).
Setting [18] is: dose: 240.0 mg/kg/injection, schedule: Q01DX005 (ip), vehicle: Klucel (hydroxypropylcellulose) (HPC).
[19] abbreviates: dose: 25.0 mg/kg/injection, schedule: Q01DX005 (ip), vehicle: Klucel (hydroxypropylcellulose) (HPC).

The structures appear in SMILES notation. Where “and” joins values, the source holds several entries; their conditions need not be identical. Identical values can stand only once. Toxic doses and inconclusive results are not listed.

For `COC(=O)C(O)CC1=CC[C@@H]2CC=C[C@H]12` (stereo partly specified), the T/C is, setting by setting: under setting [1], 104 % of control; under setting [2], 104 % of control; under setting [3], 104 % of control.
Turning to `Nc1ccccc1C(=O)CCc1c[nH]c2ccccc12`, the T/C was 96 % of control under setting [4], 90 % of control under setting [5] and 86 % of control under setting [6].
Regarding `CC1=NN(C(=O)c2cccnc2)C(=O)C1N=Nc1ccc(S(=O)(=O)Nc2nc(C)cc(C)n2)cc1` (stereo unspecified), the T/C was 101 % of control under setting [7], 99 % of control under setting [8] and 99 % of control under setting [9].
`Nc1ccc(S(=O)(=O)Nc2nc(/C=C/c3ccccc3)cc(-c3cc(/C=C/c4ccccc4)nc(NS(=O)(=O)c4ccc(N)cc4)n3)n2)cc1`: the T/C by setting is: under setting [4], 94 % of control; under setting [5], 95 % of control; under setting [6], 94 % of control.
In the case of `N#CC(c1ccccc1)c1ccc2ccccc2n1` (stereo unspecified), the T/C runs as follows: under setting [4], 92 % of control; under setting [5], 86 % of control.
As to `O=C(c1ccccc1)c1ccc([N+](=O)[O-])cc1`, the T/C was 97 % of control (dose: 3.13 mg/kg/injection, schedule: Q01DX009 (ip), vehicle: saline with Tween-80); 95 % of control under setting [10]; 91 % of control under setting [11]; 91 % of control under setting [12]; 95 % of control (dose: 50.0 mg/kg/injection, schedule: Q04DX003 (ip), vehicle: saline with Tween-80); 100 % of control (dose: 100.0 mg/kg/injection, schedule: Q04DX003 (ip), vehicle: saline with Tween-80). The T/C (dose: 200.0 mg/kg/injection, schedule: Q04DX003 (ip), vehicle: saline with Tween-80) is 109 % of control.
With `C=CCN(CC=C)/N=N/c1nc[nH]c1C(N)=O`, the T/C is 104 % of control (dose: 50.0 mg/kg/injection, schedule: Q01DX001 (ip), vehicle: saline with Tween-80); 90 % of control (dose: 100.0 mg/kg/injection, schedule: Q01DX001 (ip), vehicle: saline with Tween-80); 95 % of control (dose: 200.0 mg/kg/injection, schedule: Q01DX001 (ip), vehicle: saline with Tween-80).
`Nc1ccc(C(=O)Nc2ccc3cc(S(=O)(=O)O)cc(S(=O)(=O)O)c3c2)cc1`: the T/C was 103 % of control (dose: 50.0 mg/kg/injection, schedule: Q01DX005 (ip), vehicle: saline); 99 % of control (dose: 100.0 mg/kg/injection, schedule: Q01DX005 (ip), vehicle: saline); 100 % of control (dose: 200.0 mg/kg/injection, schedule: Q01DX005 (ip), vehicle: saline).
On to `CC1(C)CC(=O)C=C(n2ccccc2=O)C1`, for which the T/C is 97 % of control under setting [4], 102 % of control under setting [5] and 97 % of control under setting [6].
`Nc1cccc(C(=O)Nc2ccc3c(O)c(N=Nc4ccccc4)c(S(=O)(=O)O)cc3c2)c1`: the T/C reads like this: under setting [13], 103 % of control; under setting [14], 107 % of control; under setting [15], 103 % of control.
Turning to `[CH3][Sn]([CH3])([O]c1cccccc1=O)[O]c1cccccc1=O`, the T/C (dose: 25.0 mg/kg/injection, schedule: Q01DX001 (ip), vehicle: Klucel (hydroxypropylcellulose) (HPC)) is 99 % of control; the T/C (dose: 50.0 mg/kg/injection, schedule: Q01DX001 (ip), vehicle: Klucel (hydroxypropylcellulose) (HPC)) was 99 % of control; the T/C (dose: 100.0 mg/kg/injection, schedule: Q01DX001 (ip), vehicle: Klucel (hydroxypropylcellulose) (HPC)) was 100 % of control.
In the case of `c1ccc2c(NCCCCCCCCNc3c4ccccc4nc4ccccc34)c3ccccc3nc2c1`, the T/C is 121 % of control (dose: 0.62 mg/kg/injection, schedule: Q## X009 (ip), vehicle: lactic acid); 104 % of control and 114 % of control (dose: 0.63 mg/kg/injection, schedule: Q01DX009 (ip), vehicle: other); 161 % of control (dose: 1.25 mg/kg/injection, schedule: Q01DX009 (ip), vehicle: lactic acid); 124 % of control (dose: 1.25 mg/kg/injection, schedule: Q01DX009 (ip), vehicle: saline); 159 % of control (dose: 2.5 mg/kg/injection, schedule: Q01DX009 (ip), vehicle: lactic acid); 154 % of control (dose: 2.5 mg/kg/injection, schedule: Q## X009 (ip), vehicle: lactic acid). In addition, the T/C by setting is: (dose: 10.0 mg/kg/injection, schedule: Q01DX009 (ip), vehicle: saline) 153 % of control; (dose: 40.0 mg/kg/injection, schedule: Q01DX009 (ip), vehicle: saline) 90 % of control; (dose: 80.0 mg/kg/injection, schedule: Q04DX003 (ip), vehicle: Klucel (hydroxypropylcellulose) (HPC)) 88 % of control.
In the case of `Cc1oc(-c2ccccc2F)nc1C(N)=O`, the T/C under setting [7] is 96 % of control, the T/C under setting [8] is 95 % of control and the T/C under setting [9] is 91 % of control.
With `FC(F)(F)c1cccc(N=c2ccn3ccccc3c2)c1`, the T/C was 103 % of control under setting [11]; 96 % of control under setting [12]; 91 % of control and 94 % of control under setting [7].
For the compound `CC(=O)Nc1cc(N)c2c(c1)CCCC2=O`, the T/C under setting [16] is 97 % of control, the T/C under setting [17] was 96 % of control and the T/C under setting [18] is 90 % of control.
On to `COc1cc(OCc2ccc(OCc3ccccc3)cc2)cc(OC)c1OC`, for which the T/C by setting is: under setting [1], 93 % of control; under setting [2], 105 % of control; under setting [3], 95 % of control.
Take `CC1CCC2(C(=O)O)CCC3(C)C(=CCC4C5(C)CC(O)C(O)C(C)(CO)C5C(O)CC43C)C2C1C` (stereo unspecified): the T/C runs as follows: under setting [19], 90 % of control; under setting [13], 92 % of control; under setting [14], 95 % of control.
For the compound `COC(=O)/C=C(\C)Oc1c(Cl)c(Cl)c(Cl)c(Cl)c1Cl`, the T/C by setting is: (dose: 50.0 mg/kg/injection, schedule: Q04DX003 (ip), vehicle: saline sonified) 110 % of control; under setting [8], 91 % of control; (dose: 100.0 mg/kg/injection, schedule: Q04DX003 (ip), vehicle: saline sonified) 110 % of control; under setting [9], 100 % of control; (dose: 200.0 mg/kg/injection, schedule: Q04DX003 (ip), vehicle: saline sonified) 110 % of control; (dose: 400.0 mg/kg/injection, schedule: Q01DX009 (ip), vehicle: saline with Tween-80) 91 % of control.
Take `CCOC(=O)C1C(=O)N2C(=O)C(NC(C)=O)=C(O)C2C1c1ccc(C)cc1` (stereo unspecified): the T/C is 100 % of control (dose: 100.0 mg/kg/injection, schedule: Q04DX002 (ip), vehicle: saline with Tween-80); 100 % of control (dose: 200.0 mg/kg/injection, schedule: Q04DX002 (ip), vehicle: saline with Tween-80); 104 % of control (dose: 400.0 mg/kg/injection, schedule: Q04DX002 (ip), vehicle: saline with Tween-80).
For the compound `O=C(Nc1ccc(N(CCCl)CCCl)cc1)Oc1ccc(C(=O)O)cc1`, the T/C runs as follows: under setting [10], 179 % of control and 193 % of control; under setting [11], 185 % of control and 189 % of control; under setting [12], 106 % of control.
In the case of `CCC1SC2=NCCN2C1(O)c1ccc(Cl)cc1` (stereo unspecified), the T/C was 96 % of control under setting [16], 95 % of control under setting [17] and 89 % of control under setting [18].
For `Ic1ncn(CCN2CCOCC2)c1I`, the T/C runs as follows: under setting [19], 88 % of control; under setting [13], 97 % of control; under setting [14], 94 % of control; under setting [15], 97 % of control.
`CCCCC1C2C(S(=O)(=O)c3ccccc3)=NOC2C=CN1C(C)=O` (stereo unspecified): the T/C is 105 % of control and 109 % of control (dose: 15.0 mg/kg/injection, schedule: Q01DX005 (ip), vehicle: saline with Tween-80); 102 % of control and 93 % of control and 98 % of control (dose: 30.0 mg/kg/injection, schedule: Q01DX005 (ip), vehicle: saline with Tween-80).
